Laboratory results as given in ChEMBL document CHEMBL1141684, “Synthesis and evaluation of cis-3,4-disubstituted piperidines as potent CC chemokine receptor 2 (CCR2) antagonists” (Bioorg Med Chem Lett, 2008).
Blank lines part the entries; values can stand above or below the compound they belong to.

Tests used:
[1] = biological target: T1, C-C chemokine receptor type 2 (Homo sapiens, UniProt P41597); assay: Displacement of radiolabeled MCP1 from CCR2 in human PBMC by millipore filter plate assay
Target sequence in this assay (P41597 whole entry): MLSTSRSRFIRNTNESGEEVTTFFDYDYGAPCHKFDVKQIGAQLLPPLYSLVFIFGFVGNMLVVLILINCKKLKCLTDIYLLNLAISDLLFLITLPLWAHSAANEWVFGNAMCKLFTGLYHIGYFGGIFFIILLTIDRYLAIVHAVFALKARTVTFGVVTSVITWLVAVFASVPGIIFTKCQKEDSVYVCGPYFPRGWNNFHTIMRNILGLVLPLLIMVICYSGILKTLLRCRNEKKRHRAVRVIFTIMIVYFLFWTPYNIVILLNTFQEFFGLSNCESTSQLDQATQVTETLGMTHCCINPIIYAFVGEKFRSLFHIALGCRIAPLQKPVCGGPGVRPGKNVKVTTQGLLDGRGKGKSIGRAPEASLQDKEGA

[2] = biological target: T1, C-C chemokine receptor type 2; assay: Antagonist activity at CCR2 in human PBMC assessed as MCP1-induced calcium flux by fluorescence-imaging plate assay; format: functional
Target sequence in this assay (P41597 whole entry): as above

[3] = biological target: T2, C-C chemokine receptor type 3 (Homo sapiens) (UniProt P51677); assay: Inhibition of CCR3 at 10 uM
T2 sequence (whole entry): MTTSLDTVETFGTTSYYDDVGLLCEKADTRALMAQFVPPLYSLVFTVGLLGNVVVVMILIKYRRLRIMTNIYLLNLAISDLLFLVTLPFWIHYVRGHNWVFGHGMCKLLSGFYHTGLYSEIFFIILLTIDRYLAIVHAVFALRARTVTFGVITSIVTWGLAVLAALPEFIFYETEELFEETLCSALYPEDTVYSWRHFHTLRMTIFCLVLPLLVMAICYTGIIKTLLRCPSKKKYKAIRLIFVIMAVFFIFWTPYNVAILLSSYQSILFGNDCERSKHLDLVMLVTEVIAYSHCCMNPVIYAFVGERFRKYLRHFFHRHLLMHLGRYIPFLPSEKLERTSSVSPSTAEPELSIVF

[4] = biological target: T1, C-C chemokine receptor type 2; assay: Binding affinity to wild type CCR2
Target sequence in this assay (P41597 whole entry): as the sequence (P41597 whole entry) above

[5] = biological target: C-C chemokine receptor type 2 (Homo sapiens, UniProt P41597, E291A); assay: Binding affinity to CCR2 E291A mutant
Chain of C-C chemokine receptor type 2 (Homo sapiens, UniProt P41597, E291A) (P41597 whole entry E291A): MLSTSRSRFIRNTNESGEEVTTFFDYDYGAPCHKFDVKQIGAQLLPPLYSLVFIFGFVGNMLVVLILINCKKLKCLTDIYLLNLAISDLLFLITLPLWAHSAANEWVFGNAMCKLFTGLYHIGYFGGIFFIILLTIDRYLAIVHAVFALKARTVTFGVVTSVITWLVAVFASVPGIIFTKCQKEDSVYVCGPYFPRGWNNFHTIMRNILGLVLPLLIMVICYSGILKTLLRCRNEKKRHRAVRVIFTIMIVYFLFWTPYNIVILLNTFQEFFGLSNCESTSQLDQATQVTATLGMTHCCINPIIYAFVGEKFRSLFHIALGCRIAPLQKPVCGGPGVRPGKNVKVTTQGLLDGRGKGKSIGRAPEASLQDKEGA

[6] = biological target: T1, C-C chemokine receptor type 2; assay: Displacement of radiolabeled MCP1 from CCR2 in human PBMC at 1 uM by millipore filter plate assay
Target sequence in this assay (P41597 whole entry, looked up): as the sequence (P41597 whole entry) above

Compound: CSc1ccc(CNC2CCCCC2NC(=O)CNC(=O)c2cc(C(F)(F)F)ccc2N)cc1 (racemic)
- IC50 [1]: 1180 nM

Compound: CCSc1ccc(CNC2CCNCC2NC(=O)CNC(=O)c2cc(C(F)(F)F)ccc2N)cc1 (racemic)
- IC50 [1]: 123 nM

Compound: CSc1ccc(C(=O)NC2CCNCC2NC(=O)CNC(=O)c2cc(C(F)(F)F)ccc2N)cc1 (racemic)
- IC50 [1]: 28 nM
- IC50 [2]: 75 nM
- inhibition [3]: 19.7%
- IC50 [4]: 12 nM
- IC50 [5]: 381 nM

Compound: CCCN1CCC(NCc2ccc(SC)cc2)C(NC(=O)CNC(=O)c2cc(C(F)(F)F)ccc2NC(=O)N2CCCC2)C1 (racemic)
- IC50 [1]: 8.7 nM
- IC50 [2]: 21 nM
- inhibition [3]: 38.2%

Compound: CSc1ccc(C(=O)NC2CCN(C(=O)OC(C)(C)C)CC2NC(=O)CNC(=O)c2cc(C(F)(F)F)ccc2NC(=O)OC(C)(C)C)cc1 (racemic)
- Activity [6]: 0%

Compound: CSc1ccc(CNC2CCN(C(C)=O)CC2NC(=O)CNC(=O)c2cccc(C(F)(F)F)c2)cc1 (racemic)
- IC50 [1]: 463 nM

Compound: Nc1ccc(C(F)(F)F)cc1C(=O)NCC(=O)NC1CNCCC1NCc1ccc(Cl)cc1 (racemic)
- IC50 [1]: 21.5 nM
- IC50 [2]: 19 nM
- inhibition [3]: 90%

Compound: CSc1ccc(CNC2CCN(C(=O)OC(C)(C)C)CC2NC(=O)CNC(=O)c2cccc(C(F)(F)F)c2)cc1 (racemic)
- Activity [6]: 0%

Compound: CSc1ccc(CNC2CCNCC2NC(=O)CNC(=O)c2cccc(C(F)(F)F)c2)cc1 (racemic)
- IC50 [1]: 97 nM
- IC50 [2]: 510 nM
- inhibition [3]: 46%

Continued by falling IC50 [1], values first:

- IC50 [1]: 7.9 nM
- IC50 [2]: 13 nM
- inhibition [3]: 75%
Compound: CCCCN1CCC(NCc2ccc(SC)cc2)C(NC(=O)CNC(=O)c2cc(C(F)(F)F)ccc2N)C1 (racemic)

- IC50 [1]: 6.3 nM
- IC50 [2]: 7 nM
- inhibition [3]: 47.3%
- IC50 [4]: 6.1 nM
- IC50 [5]: 749 nM
Compound: CSc1ccc(CNC2CCNCC2NC(=O)CNC(=O)c2cc(C(F)(F)F)ccc2N)cc1 (racemic)

- IC50 [1]: 6.2 nM
- IC50 [2]: 6 nM
Compound: CCCN1CCC(NC(=O)c2ccc(SC)cc2)C(NC(=O)CNC(=O)c2cc(N)cc(C(F)(F)F)c2)C1 (racemic)

- IC50 [1]: 6.1 nM
- IC50 [2]: 3 nM
- inhibition [3]: 49.3%
Compound: CCCN1CCC(NCc2ccc(SC)cc2)C(NC(=O)CNC(=O)c2cc(N)cc(C(F)(F)F)c2)C1 (racemic)

- IC50 [1]: 4.3 nM
- IC50 [2]: 13 nM
- inhibition [3]: 77%
Compound: CCCCN1CCC(NC(=O)c2ccc(SC)cc2)C(NC(=O)CNC(=O)c2cc(C(F)(F)F)ccc2N)C1 (racemic)

- IC50 [1]: 3.8 nM
- IC50 [2]: 3 nM
- inhibition [3]: 5.5%
Compound: CCCN1CCC(NCc2ccc(SC)cc2)C(NC(=O)CNC(=O)c2cc(C(F)(F)F)ccc2NC(=O)NC)C1 (racemic)

- IC50 [1]: 3.4 nM
- IC50 [2]: 2 nM
- inhibition [3]: 47%
Compound: CCCN1CCC(NCc2ccc(SC)cc2)C(NC(=O)CNC(=O)c2cc(C(F)(F)F)ccc2N)C1 (racemic)

- IC50 [1]: 1.8 nM
- IC50 [2]: 2 nM
- inhibition [3]: 43.1%
Compound: CSc1ccc(C(=O)NC2CCN(C)CC2NC(=O)CNC(=O)c2cc(C(F)(F)F)ccc2N)cc1 (racemic)

- IC50 [1]: 0.95 nM
- IC50 [2]: 5 nM
- inhibition [3]: 56%
Compound: CSc1ccc(CNC2CCN(C)CC2NC(=O)CNC(=O)c2cc(C(F)(F)F)ccc2N)cc1 (racemic)
